Laboratory results: PubChem BioAssay (NCI)
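In this assay, cells in 96-well plates receive the compound at five concentrations for 48 hours. Endpoints are linearly interpolated between the surrounding concentrations. The concentration for full growth arrest is given as TGI.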

Legend:
Experiment in all cases: DTP human tumour cell line panel, 48 h
SNB-75 CNS = system: SNB-75 CNS
U251 CNS = system: U251 CNS
OVCAR-3 ovarian = system: OVCAR-3 ovarian
HT29 colon = system: HT29 colon
NCI/ADR-RES ovarian = system: NCI/ADR-RES ovarian
UACC-257 melanoma = system: UACC-257 melanoma
HCT-15 colon = system: HCT-15 colon
CAKI-1 renal = system: CAKI-1 renal
NCI-H522 lung = system: NCI-H522 lung
RXF 393 renal = system: RXF 393 renal
MCF7 breast = system: MCF7 breast
SK-MEL-28 melanoma = system: SK-MEL-28 melanoma
SR leukemia = system: SR leukemia
HOP-92 NSCLC = system: HOP-92 NSCLC
MDA-MB-435 = system: MDA-MB-435
COLO 205 colon = system: COLO 205 colon
LOX IMVI melanoma = system: LOX IMVI melanoma
HS 578T breast = system: HS 578T breast
SK-MEL-5 melanoma = system: SK-MEL-5 melanoma
TK-10 renal = system: TK-10 renal
SK-OV-3 ovarian = system: SK-OV-3 ovarian
786-0 renal = system: 786-0 renal
OVCAR-4 ovarian = system: OVCAR-4 ovarian
IGROV1 ovarian = system: IGROV1 ovarian
DU-145 prostate = system: DU-145 prostate
ACHN renal = system: ACHN renal
SF-539 CNS = system: SF-539 CNS
SF-295 CNS = system: SF-295 CNS
SK-MEL-2 melanoma = system: SK-MEL-2 melanoma
HOP-62 NSCLC = system: HOP-62 NSCLC
MALME-3M melanoma = system: MALME-3M melanoma
HCC-2998 colon = system: HCC-2998 colon
NCI-H226 lung = system: NCI-H226 lung
SF-268 CNS = system: SF-268 CNS
PC-3 prostate = system: PC-3 prostate
SNB-19 CNS = system: SNB-19 CNS
UACC-62 melanoma = system: UACC-62 melanoma
CCRF-CEM leukemia = system: CCRF-CEM leukemia
A498 renal = system: A498 renal
MOLT-4 leukemia = system: MOLT-4 leukemia
UO-31 renal = system: UO-31 renal
HCT-116 colon = system: HCT-116 colon
A549 NSCLC = system: A549 NSCLC
T-47D breast = system: T-47D breast
K-562 leukemia = system: K-562 leukemia
EKVX NSCLC = system: EKVX NSCLC
KM12 colon = system: KM12 colon
RPMI-8226 leukemia = system: RPMI-8226 leukemia
SN12C renal = system: SN12C renal
MDA-MB-231 breast = system: MDA-MB-231 breast
NCI-H460 lung = system: NCI-H460 lung
M14 melanoma = system: M14 melanoma
OVCAR-5 ovarian = system: OVCAR-5 ovarian
SW-620 colon = system: SW-620 colon
OVCAR-8 ovarian = system: OVCAR-8 ovarian
NCI-H23 lung = system: NCI-H23 lung

Measured: TGI

CC(=O)NC(CCCOC(C)=O)C(=O)NC(CCCOC(C)=O)C(=O)NC(CCCOC(C)=O)C(=O)NC(Cc1ccc([N+](=O)[O-])cc1)C(=O)NCC(=O)OCc1ccccc1 (stereo unspecified)
> 100 µM: all assays above
